US11219625B2, “Inhibitors of N-linked glycosylation and methods using same” (YALE UNIVERSITY, priority 2015, dated 2022)

What was measured:
PC9 cells = test: Assessment of senescence, autofluorescence by flow cytometry, PC9; assay type: cell-based; settings: PC9, NGI-1 treatment for 5 days
Method: FIGS. 5A-5G illustrate NGI-1 induces G1 arrest and senescence in EGFR addicted tumor cells. FIG. 5A illustrates cell cycle distribution of PC9 cells after 24 h NGI-1 treatment for 24 h determined by flow cytometry. […] FIG. 5B illustrates cell cycle distribution of A549 cells after 24 h NGI-1 treatment for 24 h determined by flow cytometry. FIG. 5C illustrates western blot time course of cyclin D1 expression in PC9 and A549 cells after NGI-1 treatment. FIG. 5D illustrates quantitative real-time PCR analysis of PC9 and A549 cells. A time course of cyclin D1 expression levels relative to GAPDH is represented. […] FIG. 5F illustrates senescence of PC9 cells explored by: cell autofluorescence, measured by flow cytometry using a detector for PE/YFP; lipofuscin accumulation, detected by confocal laser scanning microscopy using an excitation laser of 405 nm with acquired signals from spectrums of yellow 575-620 nm; and morphology changes, enlarged vs. flattened. […] Significance was calculated using a T test (*p<0.05. **p<0.01). FIG. 5G illustrates senescence of A549 cells explored by: cell autofluorescence, measured by flow cytometry using a detector for PE/YFP; lipofuscin accumulation, detected by confocal laser scanning microscopy using an excitation laser of 405 nm with acquired signals from spectrums of yellow 575-620 nm; and morphology changes, enlarged vs. flattened. […]

EGFR = test: Surface biotinylation of EGFR, H3255 cells; assay type: cell-based; settings: H3255, 10 μM NGI-1, 24 h
Method: FIGS. 3A-3F illustrate the finding that NGI-1 disrupts EGFR glycosylation and cell surface expression. FIG. 3A illustrates EGFR western blots from H3255 treated with or without 10 μM NGI-1 for 24 h. Molecular weight size shifts are compared to PNGase digestion and tunicamycin treatment alone. FIG. 3B illustrates EGFR localization in H3255 cells after 24 h 10 μM NGI-1 treatment analyzed by western blot. Plasma membrane proteins present on the surface of H3255 cells were biotinylated using a non-permeable form of biotin, sulfo-NHS—SS-biotin, and precipitated by streptavidin agarose beads. Biotin-labeled plasma membrane proteins and the fraction of non-biotinylated proteins were subjected to SDS-PAGE and analyzed by western blot against EGFR. FIG. 3C illustrates EGFR localization in H3255 cells after 24 h 10 μM NGI-1 treatment analyzed by confocal microscopy. H3255 cells were subjected to immunofluorescence for EGFR protein (red) counterstained with (CRT; green) and colocalization was determined by confocal microscopy. Nuclei were counterstained with ToPro3 (cyan). […] Bar, 10 μm. FIG. 3D illustrates quantification of colocalization using Image J Colormap Software. […] ITB1 localization after 10 μM NGI-1 for 48 h analyzed by (FIG. 3E) surface biotinylation (FIG. 3F) confocal microscopy (green). […]

Cc1cnc(NC(=O)c2cc(S(=O)(=O)N(C)C)ccc2N2CCCC2)s1 [NGI-1, 5-(N,N-Dimethylsulfamoyl)-N-(5-methylthiazol-2-yl)-2-(pyrrolidin-1-yl)benzamide]
increase of autofluorescence by flow cytometry (PC9 cells): < 60%
EGFR distribution, biotinylated vs non-biotinylated fraction (EGFR): predominantly found in the non-biotinylated intracellular fraction
